Laboratory results as given in ChEMBL document CHEMBL1201862, “PubChem BioAssay data set” (2004).
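Briefly, cells in 96-well plates were exposed to five compound concentrations for 48 h, and endpoints were estimated by linear interpolation. Abbreviation: GI50, concentration required for 50% inhibition of growth.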 Calls of active or inactive are those of the source. Cut-off read from the data, not from the text of the source: active = GI50 up to about 1.1 µM and inactive = higher.

How the values were obtained:
Test in all cases: growth of human tumour cells (NCI), 48 h
EKVX = test system: EKVX
SK-MEL-5 = test system: SK-MEL-5
OVCAR-5 = test system: OVCAR-5
MDA-MB-435 = test system: MDA-MB-435
HL-60 = test system: HL-60
K562 = test system: K562
A549 = test system: A549
MOLT-4 = test system: MOLT-4
SR = test system: SR
U-251 = test system: U-251
SK-MEL-2 = test system: SK-MEL-2
NCI-H460 = test system: NCI-H460
M14 = test system: M14
DU-145 = test system: DU-145
UACC-257 = test system: UACC-257
HT-29 = test system: HT-29
LOX IMVI = test system: LOX IMVI
BT-549 = test system: BT-549
TK-10 = test system: TK-10
HCT-15 = test system: HCT-15
MCF7 = test system: MCF7
OVCAR-4 = test system: OVCAR-4
Malme-3M = test system: Malme-3M
UO-31 = test system: UO-31
NCI/ADR-RES = test system: NCI/ADR-RES
SK-OV-3 = test system: SK-OV-3
HOP-62 = test system: HOP-62
UACC-62 = test system: UACC-62
MDA-MB-231 = test system: MDA-MB-231
ACHN = test system: ACHN
SK-MEL-28 = test system: SK-MEL-28
RPMI-8226 = test system: RPMI-8226
Hs-578T = test system: Hs-578T
SNB-75 = test system: SNB-75
CCRF-CEM = test system: CCRF-CEM
HOP-92 = test system: HOP-92
HCC 2998 = test system: HCC 2998
NCI-H522 = test system: NCI-H522
A498 = test system: A498
IGROV-1 = test system: IGROV-1
MDA-N = test system: MDA-N
RXF 393 = test system: RXF 393
KM12 = test system: KM12
SW-620 = test system: SW-620
HCT-116 = test system: HCT-116
786-0 = test system: 786-0
SNB-19 = test system: SNB-19
SN12C = test system: SN12C
SF-268 = test system: SF-268
NCI-H23 = test system: NCI-H23
SF-295 = test system: SF-295
T47D = test system: T47D
COLO 205 = test system: COLO 205
CAKI-1 = test system: CAKI-1
OVCAR-8 = test system: OVCAR-8
PC-3 = test system: PC-3
NCI-H226 = test system: NCI-H226
OVCAR-3 = test system: OVCAR-3

COc1cc2c(cc1OC)C1CN3C(=O)CCC3C(O)C1c1cc(OC)c(OC)cc1-2 (stereo not given)
GI50 (EKVX): > 100 µM (inactive) | GI50 (SK-MEL-5): > 100 µM (inactive) | GI50 (OVCAR-5): > 100 µM (inactive) | GI50 (MDA-MB-435): > 100 µM (inactive) | GI50 (HL-60): > 100 µM (inactive) | GI50 (K562): > 100 µM (inactive) | GI50 (A549): > 100 µM (inactive) | GI50 (MOLT-4): > 100 µM (inactive) | GI50 (SR): > 100 µM (inactive) | GI50 (U-251): > 100 µM (inactive) | GI50 (SK-MEL-2): > 100 µM (inactive) | GI50 (NCI-H460): > 100 µM (inactive) | GI50 (M14): > 100 µM (inactive) | GI50 (DU-145): > 100 µM (inactive) | GI50 (UACC-257): > 100 µM (inactive) | GI50 (HT-29): > 100 µM (inactive) | GI50 (LOX IMVI): > 100 µM (inactive) | GI50 (BT-549): > 100 µM (inactive) | GI50 (TK-10): > 100 µM (inactive) | GI50 (HCT-15): > 100 µM | GI50 (MCF7): > 100 µM (inactive) | GI50 (OVCAR-4): > 100 µM (inactive) | GI50 (Malme-3M): > 100 µM (inactive) | GI50 (UO-31): > 100 µM (inactive) | GI50 (NCI/ADR-RES): > 100 µM (inactive) | GI50 (SK-OV-3): > 100 µM (inactive) | GI50 (HOP-62): > 100 µM (inactive) | GI50 (UACC-62): > 100 µM (inactive) | GI50 (MDA-MB-231): > 100 µM (inactive) | GI50 (ACHN): > 100 µM (inactive) | GI50 (SK-MEL-28): > 100 µM (inactive) | GI50 (RPMI-8226): > 100 µM (inactive) | GI50 (Hs-578T): > 100 µM (inactive) | GI50 (SNB-75): 20.9 µM (inactive) | GI50 (CCRF-CEM): > 100 µM (inactive) | GI50 (HOP-92): > 100 µM (inactive) | GI50 (HCC 2998): > 100 µM (inactive) | GI50 (NCI-H522): > 100 µM (inactive) | GI50 (A498): > 100 µM (inactive) | GI50 (IGROV-1): > 100 µM (inactive) | GI50 (MDA-N): > 100 µM (inactive) | GI50 (RXF 393): > 100 µM (inactive) | GI50 (KM12): > 100 µM (inactive) | GI50 (SW-620): > 100 µM (inactive) | GI50 (HCT-116): > 100 µM (inactive) | GI50 (786-0): > 100 µM (inactive) | GI50 (SNB-19): > 100 µM (inactive) | GI50 (SN12C): > 100 µM (inactive) | GI50 (SF-268): > 100 µM (inactive) | GI50 (NCI-H23): > 100 µM (inactive) | GI50 (SF-295): > 100 µM (inactive) | GI50 (T47D): > 100 µM (inactive) | GI50 (COLO 205): > 100 µM (inactive) | GI50 (CAKI-1): > 100 µM (inactive) | GI50 (OVCAR-8): > 100 µM (inactive)

O=C(Cn1c2ccc(Br)cc2c2nc3ccccc3nc21)NNC(=S)NC1CCCCC1
GI50 (EKVX): 18.6 µM (inactive) | GI50 (SK-MEL-5): 14.2 µM (inactive) | GI50 (OVCAR-5): 19.5 µM (inactive) | GI50 (MDA-MB-435): 13.8 µM (inactive) | GI50 (PC-3): 11.7 µM (inactive) | GI50 (K562): 13.3 µM (inactive) | GI50 (A549): 10.6 µM (inactive) | GI50 (MOLT-4): 10.7 µM (inactive) | GI50 (U-251): 15 µM (inactive) | GI50 (SK-MEL-2): 17.2 µM (inactive) | GI50 (NCI-H460): 12.4 µM (inactive) | GI50 (M14): 11.9 µM (inactive) | GI50 (DU-145): 15.5 µM (inactive) | GI50 (UACC-257): 16.4 µM (inactive) | GI50 (HT-29): 15.5 µM (inactive) | GI50 (LOX IMVI): 12.4 µM (inactive) | GI50 (BT-549): 19.9 µM (inactive) | GI50 (TK-10): 15.4 µM (inactive) | GI50 (HCT-15): 12 µM | GI50 (OVCAR-4): 12.6 µM (inactive) | GI50 (NCI-H226): 15.4 µM (inactive) | GI50 (Malme-3M): 19.7 µM (inactive) | GI50 (UO-31): 10.5 µM (inactive) | GI50 (NCI/ADR-RES): 17.3 µM (inactive) | GI50 (SK-OV-3): 21.7 µM (inactive) | GI50 (HOP-62): 13.6 µM (inactive) | GI50 (UACC-62): 15.6 µM (inactive) | GI50 (MDA-MB-231): 15.8 µM (inactive) | GI50 (ACHN): 16 µM (inactive) | GI50 (SK-MEL-28): 14.7 µM (inactive) | GI50 (RPMI-8226): 13.9 µM (inactive) | GI50 (Hs-578T): 24.5 µM (inactive) | GI50 (SNB-75): 13.8 µM (inactive) | GI50 (CCRF-CEM): 0.794 µM (active) | GI50 (HOP-92): 11.8 µM (inactive) | GI50 (HCC 2998): 17.6 µM (inactive) | GI50 (NCI-H522): 14.5 µM (inactive) | GI50 (A498): 16.7 µM (inactive) | GI50 (IGROV-1): 10.7 µM (inactive) | GI50 (MDA-N): 16.8 µM (inactive) | GI50 (RXF 393): 6.89 µM (inactive) | GI50 (KM12): 18.7 µM (inactive) | GI50 (SW-620): 15.8 µM (inactive) | GI50 (HCT-116): 13.9 µM (inactive) | GI50 (786-0): 15.5 µM (inactive) | GI50 (OVCAR-3): 10.8 µM (inactive) | GI50 (SNB-19): 13.3 µM (inactive) | GI50 (SN12C): 21.3 µM (inactive) | GI50 (SF-268): 16.7 µM (inactive) | GI50 (NCI-H23): 14.4 µM (inactive) | GI50 (SF-295): 13.1 µM (inactive) | GI50 (T47D): 17.3 µM (inactive) | GI50 (COLO 205): 13.2 µM (inactive) | GI50 (CAKI-1): 18 µM (inactive) | GI50 (OVCAR-8): 14.7 µM (inactive)
